The values that follow come from US4983600A, “Heterocyclic compounds useful as 5-HT3 antagonists” (John Wyeth & Brother Limited, priority 1987, dated 1991).

The nature of assay [1]: potential anxiolytic activity: mouse exploratory activity in a two-compartment light/dark box. The assay is classed as in vivo. The note with it: mice, Student's unpaired t-test vs vehicle, *P<0.05, **P<0.01, ***P<0.001. How it is done: The compounds of the invention are tested for potential anxiolytic activity by a test procedure measuring mouse exploratory activity in a two-compartment light/dark box based upon the procedure of B Costall et al, Neuropharmacology, 1987, 26, 195-200 and J N Crawley et al, Pharmac. Biochem. Behav., 1980, 13, 167-170. The test involves observing groups of mice placed in an open topped box, one third of which is painted black and illuminated under a dim red light and partitioned from the remainder of the box which is painted white and brightly illuminated. Access between the two sections is via an opening in the centre of the partition. The groups of mice are treated with vehicle or test compound and various behavioural parameters of the animals are measured including the number of exploratory rearings made by the mice in each section and the number of times the mice cross lines marked on the floor of each section. For each treatment group the mean number of line crossings and rears in each section of the box are calculated. Differences between drug-treated groups and vehicle-treated controls are compared using Student's unpaired t-test. […] Test compounds are considered to be active if they induce a similar set of changes and, in particular, if they produce a significant (p<0.05) increase in rearing activity in the light section of the box.

The target of a further assay is T1, 5-HT3 receptors (Oryctolagus cuniculus, UniProt A0A5F9C9J3).
T1 construct: isolated right atrium of the rabbit heart; from tissue; host or cells: rabbit heart, isolated right atrium (sympathetic nerve terminals)
T1 sequence (A0A5F9C9J3 1-494): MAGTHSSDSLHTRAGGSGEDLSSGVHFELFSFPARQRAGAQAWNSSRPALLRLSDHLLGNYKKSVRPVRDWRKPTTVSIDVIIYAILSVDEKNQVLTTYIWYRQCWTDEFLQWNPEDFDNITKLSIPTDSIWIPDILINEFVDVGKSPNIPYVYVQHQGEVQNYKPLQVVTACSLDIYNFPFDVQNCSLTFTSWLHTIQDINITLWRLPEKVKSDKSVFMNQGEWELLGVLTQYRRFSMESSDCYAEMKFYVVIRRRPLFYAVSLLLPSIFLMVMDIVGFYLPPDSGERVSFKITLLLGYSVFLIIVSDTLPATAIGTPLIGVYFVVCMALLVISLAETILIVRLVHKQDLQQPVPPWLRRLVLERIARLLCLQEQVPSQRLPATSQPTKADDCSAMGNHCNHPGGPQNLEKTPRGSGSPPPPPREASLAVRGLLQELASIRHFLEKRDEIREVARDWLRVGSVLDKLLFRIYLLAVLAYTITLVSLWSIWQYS
Put plainly: 5-HT3 antagonistic activity in the isolated right atrium of the rabbit heart. The assay is classed as cell-based. The note with it: 10^-5 M 5-HT, read-out: -log IC50 (chronotropic response to 10^-5 M 5-HT) (converted). How it is done: In particular they antagonise specific 5-hydroxytryptamine (5-HT) receptors in warm blooded animals. […] 5-HT3 -antagonists are also termed "antagonists of "neuronal" 5-hydroxytryptamine receptors" and "serotonin (5-hydroxytryptamine) M-receptor antagonists". Such compounds have been described as being useful inter alia in the treatment of migraine, emesis, anxiety, gastrointestinal disorders and as anti-psychotics.
The compounds of the invention are tested for 5-HT3 antagonistic activity in the isolated right atrium of the rabbit heart based upon the method of Fozard J. R., Naunyn-Schmiedeberg's Arch. Pharmacol., 1984, 326, 36-44. This procedure relies upon the ability of 5-HT to stimulate 5-HT3 receptors present on sympathetic nerve terminals in the heart, causing release of noradrenaline which evokes an increase in the spontaneous rate of beating. The antagonist potency is expressed as -log IC50 (where IC50 is the chronotropic response to 10^-5 M 5-HT by 50%)

Where [2] appears, read: 2.0 mg/kg s.c., standard anxiolytic.

As to `CNC1=Nc2ccc(Cl)cc2C(c2ccccc2)=[N+]([O-])C1` [Chlordiazepoxide, reference compound], in assay [1] (setting [2]), the “% Change Relative to Controls: Line Crossings” value is on record as “+42%” and the “% Change Relative to Controls: Rears” value is listed as “+77%”.

For the molecule `O=C(Nc1cc(Cl)cc(Cl)c1)NC1CN2CCC1CC2` (stereo not shown) [Example 1], in assay [1] (0.1 mg/kg s.c.), the “% Change Relative to Controls: Line Crossings” value is listed as “+40%” and the “% Change Relative to Controls: Rears” value is “+85%”. Also, the IC50 on 5-HT3 receptors is 5.01 nM.

As to `COc1ccccc1C(=O)NC(=O)NC1CN2CCC1CC2` (stereo not shown) [Example 5, N-[[[1-Azabicyclo[2.2.2]octan-3-yl]amino]carbonyl]-2-methoxybenzamide], in assay [1] (0.1 mg/kg s.c.), the “% Change Relative to Controls: Line Crossings” value is listed as “+20%” and the “% Change Relative to Controls: Rears” value is recorded as “+73%”. The IC50 on 5-HT3 receptors is 2.14 nM.

With `O=C(Nc1cc(Cl)cc(Cl)c1)N[C@@H]1CN2CCC1CC2` [Example 12, (S)-(-)-N-(1-Azabicyclo[2.2.2]octan-3-yl)-N'-(3,5-dichlorophenyl)urea], in assay [1] (1.0 mg/kg s.c.), the “% Change Relative to Controls: Line Crossings” value is reported as “+42%” and the “% Change Relative to Controls: Rears” value is on record as “+75%”. Also, the IC50 on 5-HT3 receptors is 0.501 nM.

For `O=C(Nc1cc(Cl)cc(Cl)c1)N[C@H]1CN2CCC1CC2` [Example 13, (R)-(+)-N-(1-Azabicyclo[2.2.2]octan-3-yl)-N'-(3,5-dichlorophenyl)urea], in assay [1] (0.1 mg/kg s.c.), the “% Change Relative to Controls: Line Crossings” value is on record as “+69%” and the “% Change Relative to Controls: Rears” value is given as “+90%”.
